Results from ChEMBL document CHEMBL3046637, “Synthesis of new series of pyrazolo[4,3-d]pyrimidin-7-ones and pyrido[2,3-d]pyrimidin-4-ones for their bacterial and cyclin-dependent kinases (CDKs) inhibitory activities” (Med Chem Res, 2011).
In brackets after ≈: the same amount, converted by molar mass.

Tests used:
[1] = target: Glycogen synthase kinase-3 beta (Homo sapiens, UniProt P49841); assay: Inhibition of GSK3beta (unknown origin) using GS-l peptide as substrate and [gamma-33P]-ATP after 10 min
Chain of Glycogen synthase kinase-3 beta (P49841 whole entry, the tested form may be a part): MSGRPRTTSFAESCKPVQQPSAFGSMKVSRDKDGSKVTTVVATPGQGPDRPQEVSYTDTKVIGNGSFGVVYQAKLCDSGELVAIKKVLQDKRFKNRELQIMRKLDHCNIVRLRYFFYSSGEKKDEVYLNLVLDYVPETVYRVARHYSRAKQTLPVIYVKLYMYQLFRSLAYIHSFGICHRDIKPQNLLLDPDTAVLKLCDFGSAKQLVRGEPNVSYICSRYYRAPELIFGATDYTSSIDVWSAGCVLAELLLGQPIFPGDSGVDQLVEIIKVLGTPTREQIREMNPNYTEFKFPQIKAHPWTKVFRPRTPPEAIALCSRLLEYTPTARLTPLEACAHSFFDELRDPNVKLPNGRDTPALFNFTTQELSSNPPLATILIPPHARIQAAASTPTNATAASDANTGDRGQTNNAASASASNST

Pseudomonas aeruginosa [2] = assay: Antimicrobial activity against Pseudomonas aeruginosa ATCC 9027 by agar cup diffusion technique; type: functional
[3] = target: Cyclin-dependent kinase 5/CDK5 activator 1 (Homo sapiens, UniProt Q00535); assay: Inhibition of CDK5/p25 (unknown origin) using histone H1 as substrate and [gamma-33P]-ATP after 10 min; type: protein-complex assay
Chain of Cyclin-dependent kinase 5/CDK5 activator 1 (Q00535 whole entry, the tested form may be a part): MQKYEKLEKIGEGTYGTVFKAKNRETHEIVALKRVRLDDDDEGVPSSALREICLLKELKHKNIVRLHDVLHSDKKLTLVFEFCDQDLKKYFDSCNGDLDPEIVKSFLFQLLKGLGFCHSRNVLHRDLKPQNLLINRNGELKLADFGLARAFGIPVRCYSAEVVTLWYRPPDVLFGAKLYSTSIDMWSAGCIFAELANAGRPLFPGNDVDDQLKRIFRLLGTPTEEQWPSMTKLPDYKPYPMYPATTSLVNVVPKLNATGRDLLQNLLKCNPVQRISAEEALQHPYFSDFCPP
Chain of Cyclin-dependent kinase 5/CDK5 activator 1 (Q15078 whole entry, further chain, the tested form may be a part): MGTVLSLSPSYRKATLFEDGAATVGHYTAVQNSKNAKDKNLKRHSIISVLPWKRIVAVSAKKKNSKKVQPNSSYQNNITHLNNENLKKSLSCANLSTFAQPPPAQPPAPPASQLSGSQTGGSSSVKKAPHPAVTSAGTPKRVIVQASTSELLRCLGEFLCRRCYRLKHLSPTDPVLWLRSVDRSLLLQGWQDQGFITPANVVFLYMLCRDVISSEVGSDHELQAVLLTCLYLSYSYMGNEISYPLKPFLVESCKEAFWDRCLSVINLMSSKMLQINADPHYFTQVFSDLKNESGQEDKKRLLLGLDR

Candida albicans [4] = assay: Antimicrobial activity against Candida albicans ATCC 10231 by agar cup diffusion technique; type: functional
[5] = target: T1, Cyclin-dependent kinase 1/cyclin B1 (Homo sapiens, UniProt P06493); assay: Inhibition of CDK1/cyclin B (unknown origin) using histone H1 as substrate and [gamma-33P]-ATP after 10 min; type: protein-complex assay
T1 sequence (P06493 whole entry): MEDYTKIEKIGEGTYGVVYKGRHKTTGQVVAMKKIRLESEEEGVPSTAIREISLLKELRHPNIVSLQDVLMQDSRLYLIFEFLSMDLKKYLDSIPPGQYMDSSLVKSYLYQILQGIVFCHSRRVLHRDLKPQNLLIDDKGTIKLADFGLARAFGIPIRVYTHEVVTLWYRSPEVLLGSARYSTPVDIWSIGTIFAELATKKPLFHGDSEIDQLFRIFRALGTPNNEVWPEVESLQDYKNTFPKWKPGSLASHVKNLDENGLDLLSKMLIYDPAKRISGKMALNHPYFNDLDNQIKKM
T1 sequence (P14635 whole entry, further chain): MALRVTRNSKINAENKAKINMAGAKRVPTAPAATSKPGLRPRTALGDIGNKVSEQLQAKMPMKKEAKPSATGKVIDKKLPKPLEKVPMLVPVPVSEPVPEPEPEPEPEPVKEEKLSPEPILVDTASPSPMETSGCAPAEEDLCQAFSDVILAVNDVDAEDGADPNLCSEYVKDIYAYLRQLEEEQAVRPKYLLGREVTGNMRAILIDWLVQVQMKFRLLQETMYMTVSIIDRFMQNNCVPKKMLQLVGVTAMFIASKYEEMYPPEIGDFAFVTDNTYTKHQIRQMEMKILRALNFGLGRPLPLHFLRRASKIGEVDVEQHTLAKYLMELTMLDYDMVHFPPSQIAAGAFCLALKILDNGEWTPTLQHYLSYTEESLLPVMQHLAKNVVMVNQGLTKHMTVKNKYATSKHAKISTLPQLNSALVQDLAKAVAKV

[6] = target: Dual specificity tyrosine-phosphorylation-regulated kinase 1A (Homo sapiens, UniProt Q13627); assay: Inhibition of DYRK1A (unknown origin) using [gamma-33P]-ATP after 10 min
[7] = target: Glycogen synthase kinase-3 alpha (Homo sapiens, UniProt P49840); assay: Inhibition of GSK3alpha (unknown origin) using GS-l peptide as substrate and [gamma-33P]-ATP after 10 min
Chain of Glycogen synthase kinase-3 alpha (P49840 whole entry, the tested form may be a part): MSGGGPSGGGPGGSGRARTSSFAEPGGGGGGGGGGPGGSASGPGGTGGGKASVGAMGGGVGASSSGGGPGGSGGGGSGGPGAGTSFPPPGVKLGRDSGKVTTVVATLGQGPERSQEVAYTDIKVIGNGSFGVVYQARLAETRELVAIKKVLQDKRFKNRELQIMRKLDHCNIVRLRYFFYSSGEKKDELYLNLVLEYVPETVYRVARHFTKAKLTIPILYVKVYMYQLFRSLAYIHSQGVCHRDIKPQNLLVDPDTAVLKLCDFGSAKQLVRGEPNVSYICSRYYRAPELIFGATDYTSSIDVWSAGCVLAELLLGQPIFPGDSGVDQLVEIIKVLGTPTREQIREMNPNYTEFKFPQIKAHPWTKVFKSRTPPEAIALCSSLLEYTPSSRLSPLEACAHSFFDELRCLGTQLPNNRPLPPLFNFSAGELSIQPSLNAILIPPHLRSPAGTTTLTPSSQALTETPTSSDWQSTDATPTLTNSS

Escherichia coli [8] = assay: Antimicrobial activity against Escherichia coli NCTC 10418 by agar cup diffusion technique; type: functional
Candida albicans [9] = assay: Antimicrobial activity against Candida albicans ATCC 10231 by two-fold serial dilution technique; type: functional
Staphylococcus aureus [10] = assay: Antimicrobial activity against Staphylococcus aureus ATCC 6538 by agar cup diffusion technique; type: functional
Staphylococcus aureus [11] = assay: Antimicrobial activity against Staphylococcus aureus ATCC 6538 by two-fold serial dilution technique; type: functional
Pseudomonas aeruginosa [12] = assay: Antimicrobial activity against Pseudomonas aeruginosa ATCC 9027 by two-fold serial dilution technique; type: functional
Escherichia coli [13] = assay: Antimicrobial activity against Escherichia coli NCTC 10418 by two-fold serial dilution technique; type: functional
[14] = target: T1, Cyclin-dependent kinase 1/cyclin B1; assay: Inhibition of CDK1/cyclin B (unknown origin); type: protein-complex assay

Row | SMILES | IC50 [1] [µM] | diameter of the inhibition zone (DIZ) (Pseudomonas aeruginosa [2]) [mm] | IC50 [3] [µM] | diameter of the inhibition zone (DIZ) (Candida albicans [4]) [mm] | IC50 [5] [µM] | IC50 [6] [µM] | IC50 [7] [µM] | diameter of the inhibition zone (DIZ) (Escherichia coli [8]) [mm] | MBC (Candida albicans [9]) [µg/mL] | MIC (Candida albicans [9]) [µg/mL] | diameter of the inhibition zone (DIZ) (Staphylococcus aureus [10]) [mm] | MBC (Staphylococcus aureus [11]) [µg/mL] | MIC (Staphylococcus aureus [11]) [µg/mL] | MBC (Pseudomonas aeruginosa [12]) [µg/mL] | MIC (Pseudomonas aeruginosa [12]) [µg/mL] | MBC (Escherichia coli [13]) [µg/mL] | IC50 [14] [µM]
1 | CCOC(=O)C(=O)/C(=N\Nc1ccccc1)C(=O)c1ccc(Cl)cc1 | > 10 | 17 | > 10 | 16 | > 10 | > 10 | > 10 | 16 |  |  |  |  |  |  |  |  | 
2 | CCOc1ccc(S(=O)(=O)N2CCN(c3ccccc3)CC2)cc1-c1nc2ncccc2c(=O)[nH]1 | > 10 | 15.5 | > 10 | 25 | > 10 | > 10 | > 10 | 16.5 | 250 (≈ 509 µM) | 62.5 (≈ 127 µM) | 12 |  |  |  |  |  | 
3 | CC1(C)S[C@@H]2[C@H](NC(=O)[C@H](N)c3ccccc3)C(=O)N2[C@H]1C(=O)O [AMPICILLIN] |  | 18 |  |  |  |  |  | 26 |  |  | 40 | 15.6 (≈ 44.7 µM) | 3.9 (≈ 11.2 µM) | 500 (≈ 1430 µM) | 250 (≈ 715 µM) | 31.2 (≈ 89.4 µM) | 
4 | O=C1NN=C(c2ccccc2)/C(=N/Nc2ccccc2)C1=O | > 10 | 24 | > 10 | 17.5 | > 10 | > 10 | > 10 | 17 |  |  | 30 | 62.5 (≈ 214 µM) | 62.5 (≈ 214 µM) | 125 (≈ 428 µM) | 125 (≈ 428 µM) |  | 
5 | O=c1[nH]cnc2c(-c3ccc(Br)cc3)n[nH]c12 | > 10 | 17.5 | > 10 | 28 | > 10 | > 10 | > 10 | 15.5 | 250 (≈ 859 µM) | 250 (≈ 859 µM) |  |  |  |  |  |  | 
6 | COc1ccc(CNc2ncnc3c(C(C)C)n[nH]c23)cc1O |  |  |  |  |  |  |  |  |  |  |  |  |  |  |  |  | 1.1
7 | Clc1ccccc1C(c1ccccc1)(c1ccccc1)n1ccnc1 [CLOTRIMAZOLE] |  |  |  | 28 |  |  |  |  | 15.6 (≈ 45.3 µM) | 7.81 (≈ 22.6 µM) |  |  |  |  |  |  | 
8 | O=c1[nH]cnc2c(-c3ccccc3)n[nH]c12 | > 10 | 17.5 | > 10 | 17 | > 10 | > 10 | > 10 | 16 |  |  | 11 |  |  |  |  |  | 
9 | CCOC(=O)C(=O)/C(=N\Nc1ccccc1)C(=O)c1ccccc1 | > 10 | 16 | > 10 | 16 | > 10 | > 10 | > 10 | 16 |  |  |  |  |  |  |  |  | 
10 | CCOC(=O)c1[nH]nc(-c2ccc(Cl)cc2)c1/N=N/c1ccccc1 | > 10 | 16 | > 10 | 16 | > 10 | > 10 | > 10 | 16.5 |  |  | 21 | 250 (≈ 705 µM) | 125 (≈ 352 µM) |  |  |  | 
11 | CCOC(=O)c1[nH]nc(-c2ccc(Cl)cc2)c1N | > 10 | 23 | > 10 | 17 | > 10 | > 10 | > 10 | 17 |  |  | 10 |  |  | > 500 | 125 (≈ 470 µM) |  | 
12 | CCOC(=O)c1[nH]nc(-c2ccc(Br)cc2)c1N | > 10 | 17 | > 10 | 16 | > 10 | > 10 | > 10 | 15.5 |  |  | 14 |  |  |  |  |  | 
13 | CCOc1ccc(S(=O)(=O)N2CCOCC2)cc1-c1nc2ncccc2c(=O)[nH]1 | > 10 | 15 | > 10 | 17 | > 10 | > 10 | > 10 | 17 |  |  | 10 |  |  |  |  |  | 
14 | O=C1NN=C(c2ccc(Br)cc2)/C(=N/Nc2ccccc2)C1=O | > 10 | 17.5 | > 10 | 16.5 | > 10 | > 10 | > 10 | 16 |  |  | 20 | 250 (≈ 674 µM) | 250 (≈ 674 µM) |  |  |  | 
15 | CCOC(=O)c1[nH]nc(-c2ccc(F)cc2)c1/N=N/c1ccccc1 | > 10 | 17 | > 10 | 16 | > 10 | > 10 | > 10 | 16 |  |  | 20 | 250 (≈ 739 µM) | 250 (≈ 739 µM) |  |  |  | 
